The text below walks through data of article PMC10349921 (Bioorganic & medicinal chemistry, 2022).

This assay deals with human galectin 3 (Homo sapiens, UniProt P17931). Description: SPR analysis of binding of glycan ligands to immobilized human Gal-3. Conditions: for Relative affinity: calculated relative to the free lactose.
human galectin 3, sequence (P17931 whole entry): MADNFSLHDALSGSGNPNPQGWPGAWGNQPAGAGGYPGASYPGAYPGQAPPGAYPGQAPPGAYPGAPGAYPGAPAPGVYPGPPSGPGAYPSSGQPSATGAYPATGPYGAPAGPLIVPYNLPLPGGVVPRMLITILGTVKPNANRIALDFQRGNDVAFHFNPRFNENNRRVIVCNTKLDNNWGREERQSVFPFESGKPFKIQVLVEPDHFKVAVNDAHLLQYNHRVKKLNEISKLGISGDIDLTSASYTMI

For `[N-]=[N+]=NCCOCCOCCO[C@@H]1O[C@H](CO)[C@@H](O[C@@H]2O[C@H](CO)[C@H](O)[C@H](O)[C@H]2O)[C@H](O)[C@H]1O` [mono Lac (3)], the Relative affinity is reported as less than 1.47. In the case of `CC(=O)N[C@H]1[C@@H](OCCOCCOCCN=[N+]=[N-])O[C@H](CO)[C@H](O)[C@@H]1O[C@@H]1O[C@H](CO)[C@H](O)[C@H](O)[C@H]1O` [mono TFD (2), 2-(2-(2-Azido)ethoxy)ethyl-2-actamido-2-desoxy-3-O-[-β-D-galactopyranosyl]-α-D-galactopyranoside], the Relative affinity is reported as less than 1.47. For the molecule `CC(=O)N[C@H]1[C@@H](OCCOCCOCCN=[N+]=[N-])O[C@H](CO)[C@H](O)[C@@H]1O` [mono Tn (1), 2-(2-(2-Azido)ethoxy)ethyl-2-actamido-2-desoxy-α-D-gal-actopyranoside], the Relative affinity is less than 1.47. For the molecule β-Cyclodextrin-GalNAc [CD-Tn (16)], the Relative affinity is 1070. The molecule also came in with a half-maximal effective concentration (EC50) (SPR, Gal-3 immobilized on CM5 chip, ligand as analyte, 25 °C) of 1370 ± 390 nM. In addition, the “enhanced relative affinity (per glycan ligand) in comparison with free lactose” value (SPR, per glycan ligand) is 153 fold. In addition, the “Relative affinity per unit” value (calculated for each sugar unit on cyclodextrin, relative to free lactose) is 153.

As a reminder, the EC50 is the midpoint of the concentration-response curve.
